According to patent US20250263405A1, “HISTONE DEACETYLASE 6 INHIBITOR COMPOUNDS AND USES THEREOF” (VALO HEALTH, INC., priority 2021, published 2025):

target: HDAC6 (Homo sapiens (Human), UniProt Q9UBN7); assay: HDAC6 TR-FRET displacement assay; assay type: binding; settings: displacement of fluorescein labeled tracer from HDAC6; 2 nM HDAC6, 1 nM tracer, 0.5 nM Tb-anti-GST antibody; 30 min pre-incubation, 6 hours at 25° C.
From the text: HDAC6 and Tb-anti-GST antibody were purchased from Signal Chem (cat #PC124) and Cisbio (cat #61GSTTAH), respectively. HEPES, pH 7.5 was purchased from Teknova (Cat #H1575). All other buffer components, NaCl (cat #S5150), KCl (cat #60121), Triton X-100 (cat #T9284), GSH (cat #G4251), BGG (cat #G5009), and BSA (cat #A2153) were purchased from SIGMA.
Displacement of fluorescein labeled tracer 2-(6-hydroxy-3-oxo-3H-xanthen-9-yl)-5-({[5-(4-{[7-(hydroxycarbamoyl)-2H,3H,4H,5H-thieno[2,3-f][1,4]oxazepine-4-carbonyl]amino}phenoxy)pentyl]carbamothioyl}amino)benzoic acid from HDAC6 was measured in vitro using a TR-FRET assay. The assays were performed in 1536-well plates in a total volume of 6 μL in assay buffer consisting of 50 mM HEPES pH 7.5, 50 mM NaCl, 50 mM KCl, 0.01% Triton X-100, 0.5 mM GSH, 0.03% BGG, 0.01% BSA.
For concentration response curves (IC50 determination), Compounds were serially diluted 3-fold from 2 mM highest concentration to generate a 10-point concentration gradient. To perform the assay, 30 nL of compound gradient solutions were transferred to the assay plate using the ECHO acoustic dispenser to achieve a final concentration range of 10 μM to 0.000508 uM in 6 μL reaction. 3 μL of HDAC6 in assay buffer were added to the assay plates and pre-incubate at room temp. for 30 mins. After pre-incubation, 3 μL of the tracer and TB-anti-GST antibody mix were added to the assay plates. The final concentrations of HDAC6, tracer, and TB-anti-GST antibody for each assay are 2 nM, 1 nM, and 0.5 nM, respectively. Binding reactions were equilibrated at 25° C. for an additional 6 hours, then read in endpoint mode on the BMG PheraStar (BMG labtech) equipped with a 337-520-490 optical module. The ratio of the 520/490 nm emission was calculated to determine the relative amounts of HDAC6 and tracer complex residue in each well.
The percent inhibition of HDAC6 (IC50) was calculated according to the following equation.
As set forth in Table 1, “A” indicates an HDAC6 IC50 value of less than 200 nM; “B” indicates an HDAC6 IC50 value of greater than or equal to 200 nM and less than 500 nM; and “C” indicates an HDAC6 IC50 value of greater than or equal to 500 nM and less than 5 μM.

Sequence of HDAC6 (Q9UBN7 whole entry): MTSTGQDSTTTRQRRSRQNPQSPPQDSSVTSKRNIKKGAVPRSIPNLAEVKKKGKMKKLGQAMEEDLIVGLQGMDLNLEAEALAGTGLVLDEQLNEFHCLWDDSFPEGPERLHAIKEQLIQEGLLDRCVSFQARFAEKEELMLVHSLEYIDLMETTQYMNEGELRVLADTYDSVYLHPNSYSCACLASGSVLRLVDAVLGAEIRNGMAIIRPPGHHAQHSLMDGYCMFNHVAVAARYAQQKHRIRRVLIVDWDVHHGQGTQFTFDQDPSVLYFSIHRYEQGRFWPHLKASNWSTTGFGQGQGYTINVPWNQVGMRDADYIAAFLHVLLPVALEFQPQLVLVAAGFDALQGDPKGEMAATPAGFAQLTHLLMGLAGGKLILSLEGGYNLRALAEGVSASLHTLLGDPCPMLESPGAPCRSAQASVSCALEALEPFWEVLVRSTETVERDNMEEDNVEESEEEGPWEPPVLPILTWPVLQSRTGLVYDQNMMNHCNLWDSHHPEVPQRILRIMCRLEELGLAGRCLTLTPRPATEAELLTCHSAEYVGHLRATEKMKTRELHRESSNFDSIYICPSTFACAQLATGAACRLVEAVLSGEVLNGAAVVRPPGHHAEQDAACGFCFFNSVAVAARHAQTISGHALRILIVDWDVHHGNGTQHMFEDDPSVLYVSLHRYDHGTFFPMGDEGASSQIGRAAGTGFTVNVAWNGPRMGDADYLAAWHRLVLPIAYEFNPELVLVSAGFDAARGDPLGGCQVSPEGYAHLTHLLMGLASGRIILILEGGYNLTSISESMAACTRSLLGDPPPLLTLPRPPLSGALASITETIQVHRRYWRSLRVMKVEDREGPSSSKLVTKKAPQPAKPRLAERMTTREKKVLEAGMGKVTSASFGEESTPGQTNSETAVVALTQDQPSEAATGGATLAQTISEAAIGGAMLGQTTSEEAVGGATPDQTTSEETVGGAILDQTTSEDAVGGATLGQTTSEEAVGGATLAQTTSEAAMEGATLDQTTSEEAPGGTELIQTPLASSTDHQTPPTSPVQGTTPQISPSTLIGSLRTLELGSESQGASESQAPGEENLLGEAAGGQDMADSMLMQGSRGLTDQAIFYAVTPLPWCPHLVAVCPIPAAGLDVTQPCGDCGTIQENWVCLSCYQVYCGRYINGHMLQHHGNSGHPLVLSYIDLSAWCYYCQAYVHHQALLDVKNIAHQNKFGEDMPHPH

Row | Structure (SMILES) | IC50 [nM]
1 | CCN1CCC(C)(C(=O)N2Cc3c(F)cc(-c4noc(C(F)(F)F)n4)cc3OC[C@@H]2C)CC1 [Compound 55, (S)-(1-ethyl-4-methylpiperidin-4-yl)(6-fluoro-3-methyl-8-(5-(trifluoromethyl)-1,2,4-oxadiazol-3-yl)-2,3-dihydrobenzo[f][1,4]oxazepin-4(5H)-yl)methanone] | 200 to 500
2 | CC(C)(C)C(=O)N1Cc2ccc(-c3noc(C(F)(F)F)n3)cc2OC[C@@H]1c1ccccc1 [Compound 23, 2,2-dimethyl-1-[(3S)-3-phenyl-8-[5-(trifluoromethyl)-1,2,4-oxadiazol-3-yl]-3,5-dihydro-2H-1,4-benzoxazepin-4-yl]propan-1-one] | 200 to 500
3 | O=C(N1Cc2ccc(-c3noc(C(F)(F)F)n3)cc2OC[C@@H]1c1ccccc1)C(F)(F)F [Compound 6, (S)-2,2,2-trifluoro-1-(3-phenyl-8-(5-(trifluoromethyl)-1,2,4-oxadiazol-3-yl)-2,3-dihydrobenzo[f][1,4]oxazepin-4(5H)-yl)ethan-1-one] | 500 to 5000
4 | C[C@H]1COc2cc(-c3nnc(C(F)F)o3)ccc2CN1C(=O)C(C)(C)C [Compound 20, (S)-1-(8-(5-(difluoromethyl)-1,3,4-oxadiazol-2-yl)-3-methyl-2,3-dihydrobenzo[f][1,4]oxazepin-4(5H)-yl)-2,2-dimethylpropan-1-one] | < 200
5 | CC1(C(=O)N2CCOc3cc(-c4noc(C(F)(F)F)n4)cc(F)c3C2)COC1 [Compound 37, 6-fluoro-4-[(3-methyloxetan-3-yl)carbonyl]-8-[5-(trifluoromethyl)-1,2,4-oxadiazol-3-yl]-3,5-dihydro-2H-1,4-benzoxazepine] | < 200
6 | CC1(C(=O)N2Cc3ccc(-c4noc(C(F)(F)F)n4)cc3OC[C@@H]2c2ccccc2)CCCOC1 (single isomer, unassigned) [Compound 14] | 500 to 5000
7 | CC1(C(=O)N2Cc3ccc(-c4noc(C(F)(F)F)n4)cc3OC[C@@H]2c2ccccc2)COC1 [Compound 5, (3S)-4-[(3-methyloxetan-3-yl)carbonyl]-3-phenyl-8-[5-(trifluoromethyl)-1,2,4-oxadiazol-3-yl]-3,5-dihydro-2H-1,4-benzoxazepine] | < 200
8 | C[C@H]1COc2cc(-c3noc(C(F)(F)F)n3)ccc2CN1C [Compound 35, (S)-3,4-dimethyl-8-(5-(trifluoromethyl)-1,2,4-oxadiazol-3-yl)-2,3,4,5-tetrahydrobenzo[f][1,4]oxazepine] | 200 to 500
9 | CC(C)(C)C(=O)N1Cc2c(F)cc(-c3noc(C(F)(F)F)n3)cc2OC[C@@H]1c1ccccc1 [Compound 15, (S)-1-(6-fluoro-3-phenyl-8-(5-(trifluoromethyl)-1,2,4-oxadiazol-3-yl)-2,3-dihydrobenzo[f][1,4]oxazepin-4(5H)-yl)-2,2-dimethylpropan-1-one] | 200 to 500
10 | CC1(C(=O)N2Cc3ccc(-c4noc(C(F)(F)F)n4)cc3OC[C@@H]2C2CC2)CCOCC1 [Compound 32, (3S)-3-cyclopropyl-4-[(4-methyloxan-4-yl)carbonyl]-8-[5-(trifluoromethyl)-1,2,4-oxadiazol-3-yl]-3,5-dihydro-2H-1,4-benzoxazepine] | < 200
11 | C[C@H]1COc2cc(-c3noc(C(F)(F)F)n3)ccc2CN1C(=O)C1(C)CCOCC1 [Compound 16, (3S)-3-methyl-4-[(4-methyloxan-4-yl)carbonyl]-8-[5-(trifluoromethyl)-1,2,4-oxadiazol-3-yl]-3,5-dihydro-2H-1,4-benzoxazepine] | < 200
12 | CC(C)(C)C(=O)N1Cc2ccc(-c3nnc(C(F)F)o3)cc2OC[C@@H]1c1ccccc1 [Compound 22, (S)-1-(8-(5-(difluoromethyl)-1,3,4-oxadiazol-2-yl)-3-phenyl-2,3-dihydrobenzo[f][1,4]oxazepin-4(5H)-yl)-2,2-dimethylpropan-1-one] | < 200
13 | CC(C)N1CCC(C)(C(=O)N2Cc3c(F)cc(-c4noc(C(F)(F)F)n4)cc3OC[C@@H]2C)CC1 [Compound 56, (S)-(6-fluoro-3-methyl-8-(5-(trifluoromethyl)-1,2,4-oxadiazol-3-yl)-2,3-dihydrobenzo[f][1,4]oxazepin-4(5H)-yl)(1-isopropyl-4-methylpiperidin-4-yl)methanone] | < 200
14 | COC[C@H]1COc2cc(-c3noc(C(F)(F)F)n3)ccc2CN1C(=O)C1(C)CCOCC1 [Compound 26, (3S)-3-(methoxymethyl)-4-[(4-methyloxan-4-yl)carbonyl]-8-[5-(trifluoromethyl)-1,2,4-oxadiazol-3-yl]-3,5-dihydro-2H-1,4-benzoxazepine] | < 200
15 | C[C@H]1COc2cc(-c3noc(C(F)(F)F)n3)ccc2CN1CC(F)(F)F [Compound 36, (S)-3-methyl-4-(2,2,2-trifluoroethyl)-8-(5-(trifluoromethyl)-1,2,4-oxadiazol-3-yl)-2,3,4,5-tetrahydrobenzo[f][1,4]oxazepine] | 500 to 5000
16 | CC(=O)N1Cc2c(F)cc(-c3noc(C(F)(F)F)n3)cc2OC[C@@H]1C [Compound 25, 1-[(3S)-6-fluoro-3-methyl-8-[5-(trifluoromethyl)-1,2,4-oxadiazol-3-yl]-3,5-dihydro-2H-1,4-benzoxazepin-4-yl]ethanone] | 200 to 500
17 | C[C@H]1COc2cc(-c3noc(C(F)(F)F)n3)cc(F)c2CN1C(=O)C1(C)COC1 [Compound 1, (S)-(6-fluoro-3-methyl-8-(5-(trifluoromethyl)-1,2,4-oxadiazol-3-yl)-2,3-dihydrobenzo[f][1,4]oxazepin-4(5H)-yl)(3-methyloxetan-3-yl)methanone] | < 200
18 | COCC(=O)N1Cc2c(F)cc(-c3noc(C(F)(F)F)n3)cc2OC[C@@H]1C [Compound 41, 1-[(3S)-6-fluoro-3-methyl-8-[5-(trifluoromethyl)-1,2,4-oxadiazol-3-yl]-3,5-dihydro-2H-1,4-benzoxazepin-4-yl]-2-methoxyethanone] | < 200
19 | C[C@H]1COc2cc(-c3noc(C(F)(F)F)n3)cc(F)c2CN1C(=O)C(C)(C)C [Compound 19, 1-[(3S)-6-fluoro-3-methyl-8-[5-(trifluoromethyl)-1,2,4-oxadiazol-3-yl]-3,5-dihydro-2H-1,4-benzoxazepin-4-yl]-2,2-dimethylpropan-1-one] | < 200
20 | C[C@H]1COc2cc(-c3noc(C(F)(F)F)n3)cc(F)c2CN1C(=O)CO [Compound 40, 1-[(3S)-6-fluoro-3-methyl-8-[5-(trifluoromethyl)-1,2,4-oxadiazol-3-yl]-3,5-dihydro-2H-1,4-benzoxazepin-4-yl]-2-hydroxyethanone] | 200 to 500
21 | CC1(C(=O)N2Cc3ccc(-c4noc(C(F)(F)F)n4)cc3OC[C@@H]2c2ccccc2)CCOCC1 [Compound 4, (S)-(4-methyltetrahydro-2H-pyran-4-yl)(3-phenyl-8-(5-(trifluoromethyl)-1,2,4-oxadiazol-3-yl)-2,3-dihydrobenzo[f][1,4]oxazepin-4(5H)-yl)methanone] | < 200
22 | C[C@H]1COc2cc(-c3noc(C(F)(F)F)n3)cc(F)c2CN1C(=O)Cc1ccncc1 [Compound 46, 1-[(3S)-6-fluoro-3-methyl-8-[5-(trifluoromethyl)-1,2,4-oxadiazol-3-yl]-3,5-dihydro-2H-1,4-benzoxazepin-4-yl]-2-(pyridin-4-yl) ethenone] | < 200
23 | CC(C)(C)C(=O)N1CCOc2cc(-c3noc(C(F)(F)F)n3)cc(F)c2C1 [Compound 29, 1-{6-fluoro-8-[5-(trifluoromethyl)-1,2,4-oxadiazol-3-yl]-3,5-dihydro-2H-1,4-benzoxazepin-4-yl}-2,2-dimethylpropan-1-one] | < 200
